Laboratory results published in patent publication US9617283B2, “Bicyclic heterocycle compounds and their uses in therapy” (ASTEX THERAPEUTICS LIMITED, priority 2012, dated 2017).
Counter-ions that a name gives are not always drawn. Like-named read-outs stand apart in the source and are kept apart here.

Experiments:
[1] = biological target: T1, BIR3 domain of human XIAP (residues 252-350) (Homo sapiens, UniProt P98170); assay: XIAP in vitro competitive displacement binding assay (fluorescence polarization); conditions: percent inhibition (PI) at 0.04 μM; for Xiap IC50 or PI μM: 60 min, dihydrochloride, 0.04 µM; for inhibition at 0.04 µM: 1 h, read-out: Xiap IC50 or PI μM
T1 construct: BIR3 domain of human XIAP (residues 252-350); His-tag (cleaved yes); made in house; host or cells: Escherichia coli
T1 sequence (P98170 252-350): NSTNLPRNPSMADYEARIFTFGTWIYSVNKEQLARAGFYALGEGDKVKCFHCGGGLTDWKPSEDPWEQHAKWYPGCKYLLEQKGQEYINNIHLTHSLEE

[2] = biological target: T2, BIR3 domain of human cIAP-1 (residues 267-363) (Homo sapiens, UniProt Q13490); assay: cIAP-1 in vitro competitive displacement binding assay (fluorescence polarization)
T2 construct: human cIAP-1 (residues 267-363) fused to a GST-tag; GST-tag (cleaved yes); made in house; host or cells: Escherichia coli
T2 sequence (Q13490 267-363): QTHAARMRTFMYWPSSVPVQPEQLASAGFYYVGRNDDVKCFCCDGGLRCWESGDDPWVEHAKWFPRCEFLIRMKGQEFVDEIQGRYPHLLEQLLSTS

[3] = system: EVSA-T (human breast carcinoma); assay: Anti-proliferative activity, Alamar Blue assay, EVSA-T; type: cell-based
[4] = EVSA-T cell line, 72 hours, Alamar Blue, dihydrochloride, read-out: EVSA-T prolif
[5] = Homo sapiens, EVSA-T, read-out: EC50 in EVSA-T cell line assays
[6] = Homo sapiens, EVSA-T, 72 h, EVSA-T cell line, 72 hours, Alamar Blue, read-out: EVSA-T prolif

Compound | Xiap IC50 or PI μM [1] | inhibition at 0.04 µM ([2]; 3 h, percent inhibition (PI) at 0.04 μM, read-out: cIAP1 IC50 or PI μM) | EC50 [3, 4] | cIAP1 IC50 or PI μM ([2]; percent inhibition (PI) at […], 180 min, dihydrochloride, […]) | EC50 [3, 5] | inhibition at 0.04 µM [1] | EC50 [3, 6]
CCCC(O)c1cnc2c(c1)N(C(=O)CN1C[C@@H](C)NC[C@@H]1CN1Cc3ccccc3C1=O)CC2(C)C (single isomer, unassigned) [Example 91, dihydrochloride] | 40%@0.04 | 53% | 330 nM | – | – | – | –
CCC1CN(C[C@H]2CN[C@H](C)CN2CC(=O)N2CC(C)(C)c3ncc([C@@H](O)c4ccc(F)cc4)cc32)C(=O)CO1 (single isomer, unassigned) [Example 111, (R or S)-6-ethyl-4-{[(2R,5R)-1-(2-{6-[(S)-(4-Fluorophenyl)(hydroxy)methyl]-3,3-dimethyl-1H,2H,3H-pyrrolo[3,2-b]pyridin-1-yl}-2-oxoethyl)-5-methylpiperazin-2-yl]methyl}morpholin-3-one dihydrochloride] | 68%@0.04 | – | 77 nM | 62%@0.012 | < 1000 nM | – | –
C[C@@H]1CN(CC(=O)N2CC(C)(C)c3ncc(Cc4ccc(F)cc4F)cc32)[C@@H](CN2Cc3ccc(C#N)cc3C2=O)CN1 [Example 112, 2-{[(2R,5R)-1-(2-{6-[(2,4-Difluorophenyl)methyl]-3,3-dimethyl-1H,2H,3H-pyrrolo[3,2-b]pyridin-1-yl}-2-oxoethyl)-5-methylpiperazin-2-yl]methyl}-3-oxo-2,3-dihydro-1H-isoindole-5-carbonitrile dihydrochloride] | – | – | – | – | < 1000 nM | 85% | 2.7 nM
C[C@@H]1CN(CC(=O)N2CC(C)(C)c3nnc(Cc4ccc(F)cc4F)cc32)[C@@H](CN2Cc3cccc(F)c3C2=O)CN1 [Example 113, 2-{[(2R,5R)-1-(2-{3-[(2,4-Difluorophenyl)methyl]-7,7-dimethyl-5H,6H,7H-pyrrolo[3,2-c]pyridazin-5-yl}-2-oxoethyl)-5-methylpiperazin-2-yl]methyl}-7-fluoro-2,3-dihydro-1H-issoindol-1-one dihydrochloride] | – | – | – | – | < 1000 nM | 69% | 0.62 nM
C[C@@H]1CN(CC(=O)N2CC(C)(C)c3ncc(Cc4ccc(F)cc4F)cc32)[C@@H](CN2Cc3c(O)cccc3C2=O)CN1 [Example 118, 2-{[(2R,5R)-1-(2-{6-[(2,4-Difluorophenyl)methyl]-3,3-dimethyl-1H,2H,3H-pyrrolo[3,2-b]pyridin-1-yl}-2-oxoethyl)-5-methylpiperazin-2-yl]methyl}-4-hydroxy-2,3-dihydro-1H-isoindol-1-one dihydrochloride] | – | – | – | – | < 1000 nM | 72% | 6.4 nM
